We go through four molecules from publication PMC10587151, “Ligand activation mechanisms of human KCNQ2 channel” (Nature Communications, 2023).

In data set [1] the target is T1, KCNQ2 (Homo sapiens, UniProt O43526, F104A).
T1 construct: residues 64–674; with calmodulin (CaM)
Kind of data set: cryo-EM structure ([…] Å), closed state. The data set is classed as binding.

Data set [2] has as its target T2, KCNQ2 (Homo sapiens, UniProt O43526). Kind of data set: cryo-EM structure ([…] Å); whole-cell patch clamp in CHO cells for the EC50. It is filed as cell-based. Details: wild-type human KCNQ2 cDNA in pcDNA5/FRT, expressed in CHO cells, whole-cell patch clamp; no CaM co-transfection stated; not the 64-674 cryo-EM construct. A general note: Patch clamp records ionic current or voltage across a cell membrane.
Target sequence in this assay (O43526 whole entry): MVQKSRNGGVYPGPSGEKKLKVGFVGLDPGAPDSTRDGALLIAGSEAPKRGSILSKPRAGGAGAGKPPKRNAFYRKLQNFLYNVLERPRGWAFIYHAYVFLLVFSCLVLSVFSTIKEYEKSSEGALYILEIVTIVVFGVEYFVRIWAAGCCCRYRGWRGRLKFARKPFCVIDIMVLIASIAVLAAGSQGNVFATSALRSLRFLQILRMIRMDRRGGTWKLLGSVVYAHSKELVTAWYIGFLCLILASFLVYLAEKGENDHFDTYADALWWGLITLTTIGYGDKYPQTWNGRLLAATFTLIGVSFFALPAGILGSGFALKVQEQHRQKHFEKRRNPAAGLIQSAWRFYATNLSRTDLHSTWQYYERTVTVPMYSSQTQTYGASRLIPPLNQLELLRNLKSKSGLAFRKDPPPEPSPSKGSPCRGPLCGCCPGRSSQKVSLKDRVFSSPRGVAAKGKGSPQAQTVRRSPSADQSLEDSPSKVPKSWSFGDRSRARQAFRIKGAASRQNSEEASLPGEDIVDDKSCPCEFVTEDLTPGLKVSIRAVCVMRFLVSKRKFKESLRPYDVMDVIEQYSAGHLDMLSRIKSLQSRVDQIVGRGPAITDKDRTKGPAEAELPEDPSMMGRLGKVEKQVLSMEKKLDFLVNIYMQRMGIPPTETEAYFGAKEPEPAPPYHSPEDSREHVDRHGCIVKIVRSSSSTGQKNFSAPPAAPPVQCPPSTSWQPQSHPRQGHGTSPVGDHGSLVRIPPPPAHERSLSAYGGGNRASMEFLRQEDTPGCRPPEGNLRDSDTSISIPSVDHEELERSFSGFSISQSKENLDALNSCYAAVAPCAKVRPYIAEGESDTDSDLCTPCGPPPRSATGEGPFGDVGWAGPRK

Data set [3] addresses T2, KCNQ2. The description is as above. The data set is classed as cell-based. Also noted: residues 64–674; with calmodulin (CaM).
Data set [4] deals with T1, KCNQ2. Briefly: cryo-EM structure ([…] Å), open state, with one CBD co-bound. It is filed as binding.
In data set [5] the target is T2, KCNQ2. Kind of data set: cryo-EM structure ([…] Å), with CBD co-bound. Also noted: residues 64–674; with calmodulin (CaM).
Data set [6] concerns the molecule itself. Briefly: cryo-EM structure; KCNQ2 (strep tag) and CaM (His tag) co-expressed in HEK293S, complex purified on Strep-Tactin and Superose 6 in 20 mM Tris pH 8.0, 150 mM KCl, 0.02% GDN; incubated with 0.25 mM CBD, 0.15 mM HN37 and/or 1 mM PIP2; C4 symmetry; closed and open states.

Where a name gives a salt, the structure may show the parent alone. Read-outs that look alike come from different tables or passages of the source.

T1 sequence (O43526 64-674 F104A): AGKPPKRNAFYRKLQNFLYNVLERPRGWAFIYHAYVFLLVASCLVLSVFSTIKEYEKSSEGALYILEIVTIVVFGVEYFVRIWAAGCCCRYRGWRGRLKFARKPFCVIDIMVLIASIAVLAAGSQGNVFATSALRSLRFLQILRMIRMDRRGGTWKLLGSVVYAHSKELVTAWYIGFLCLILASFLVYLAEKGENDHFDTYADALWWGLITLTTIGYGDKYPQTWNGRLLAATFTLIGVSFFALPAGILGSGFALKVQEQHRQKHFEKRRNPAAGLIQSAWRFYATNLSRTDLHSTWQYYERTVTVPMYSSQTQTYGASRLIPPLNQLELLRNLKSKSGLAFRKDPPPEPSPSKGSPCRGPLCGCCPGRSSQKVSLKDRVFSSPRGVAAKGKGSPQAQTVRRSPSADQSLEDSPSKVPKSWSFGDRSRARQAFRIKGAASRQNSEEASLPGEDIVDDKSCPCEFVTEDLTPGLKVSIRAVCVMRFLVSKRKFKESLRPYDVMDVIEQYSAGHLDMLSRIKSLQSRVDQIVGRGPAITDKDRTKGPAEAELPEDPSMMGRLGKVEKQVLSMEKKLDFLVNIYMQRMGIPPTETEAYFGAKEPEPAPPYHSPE

On to `C=C(C)[C@@H]1CCC(C)=C[C@H]1c1c(O)cc(CCCCC)cc1O` [CBD, cannabidiol], for which the “cryo-EM structure (2.7 Å), closed state” value on KCNQ2 [1] is recorded as “In both maps, CBDA molecules maintain strong densities but those for CBDB are barely observed”. Also, a half-maximal effect on KCNQ2 [2] (EC50) was put at 4.5 ± 1.79 µM. In the case of `C#CCN(Cc1ccc(F)cc1)c1cc(C)c(NC(=O)OC)c(C)c1` [HN37], the concentration giving a half-maximal response (EC50) (usually the concentration that produces a half-maximal response) at KCNQ2 [3] was determined as 0.0285 ± 0.00299 µM. In the case of `CCCCCCCC(=O)OC[C@H](COP(=O)(O)O[C@@H]1[C@H](O)[C@H](O)[C@@H](OP(=O)(O)O)[C@H](OP(=O)(O)O)[C@H]1O)OC(=O)CCCCCCC` [PIP2, 1,2-dioctanoyl-sn-glycero-3-phospho-(1’-myo-inositol-4’,5’-bisphosphate) (ammonium salt)], on KCNQ2 [4], the “cryo-EM structure (3.5 Å), open state, with one CBD co-bound” value is recorded as “KCNQ2-CaMF104A-CBD-PIP2-II is in an open state with the PIP2 bound”. On KCNQ2 [5], the “cryo-EM structure (3.1 Å), with CBD co-bound” value was “between VSD and PD, one PIP2 molecule is assigned, with its fatty acid chains switched by S1III/S4III and S5II”.

B1: human KCNQ2 (residues 64-674, C-terminal strep tag) (domain or fragment, UniProt O43526-1 64-674, looked up)
chain: AGKPPKRNAFYRKLQNFLYNVLERPRGWAFIYHAYVFLLVFSCLVLSVFSTIKEYEKSSEGALYILEIVTIVVFGVEYFVRIWAAGCCCRYRGWRGRLKFARKPFCVIDIMVLIASIAVLAAGSQGNVFATSALRSLRFLQILRMIRMDRRGGTWKLLGSVVYAHSKELVTAWYIGFLCLILASFLVYLAEKGENDHFDTYADALWWGLITLTTIGYGDKYPQTWNGRLLAATFTLIGVSFFALPAGILGSGFALKVQEQHRQKHFEKRRNPAAGLIQSAWRFYATNLSRTDLHSTWQYYERTVTVPMYSSQTQTYGASRLIPPLNQLELLRNLKSKSGLAFRKDPPPEPSPSKGSPCRGPLCGCCPGRSSQKVSLKDRVFSSPRGVAAKGKGSPQAQTVRRSPSADQSLEDSPSKVPKSWSFGDRSRARQAFRIKGAASRQNSEEASLPGEDIVDDKSCPCEFVTEDLTPGLKVSIRAVCVMRFLVSKRKFKESLRPYDVMDVIEQYSAGHLDMLSRIKSLQSRVDQIVGRGPAITDKDRTKGPAEAELPEDPSMMGRLGKVEKQVLSMEKKLDFLVNIYMQRMGIPPTETEAYFGAKEPEPAPPYHSPE
notes: Human voltage-gated potassium channel KCNQ2, N- and C-terminal regions truncated, residues 64-674; numbers count on: NP_004509.2; The vector is a modified pEZT-BM; also called WT KCNQ2; KCNQ2 of the KCNQ2-CaM complex; source: HEK293S suspension cells, BacMam baculovirus, co-expressed with CaM, purified (Strep-Tactin, Superose 6); not shown: strep tag, C-terminal, kept
B1: the stoichiometry N (in general, the number of molecules, sites or subunits per partner or assembly) in data set [6] worked out at 4.
